Data taken from the SangsterLogP compilation.

SMILES | logP
CCOC(=O)c1cc(C#N)c(S(C)=O)s1 (configuration not stated) | 2.27
Cc1sc(S(C)=O)c([N+](=O)[O-])c1C (configuration not stated) | 2.65
CS(=O)c1ccc([N+](=O)[O-])s1 (configuration not stated) | 1.4
CC(=O)c1sc(S(C)=O)c(-c2ccc(Cl)cc2)c1N (configuration not stated) | 3.18
CS(=O)c1sc(C#N)cc1C#N (configuration not stated) | 1.31
CS(=O)c1sccc1C#N (configuration not stated) | 0.96
CCS(=O)c1sccc1[N+](=O)[O-] (configuration not stated) | 2.06
CC(=O)c1sc(S(C)=O)c(C#N)c1-c1ccc(Cl)cc1 (configuration not stated) | 3.31
CS(=O)c1cccs1 (configuration not stated) | 0.91
CS(=O)c1sccc1Br (configuration not stated) | 1.71
CC(=O)c1sc(S(C)=O)c(-c2ccc(Cl)cc2)c1C (configuration not stated) | 3.82
Cc1c(C#N)sc(S(C)(=O)=O)c1-c1ccc(Cl)cc1 | 3.8
CCS(=O)c1sc(C(C)=O)c(C)c1[N+](=O)[O-] (configuration not stated) | 2.81
CCCS(=O)c1sccc1[N+](=O)[O-] (configuration not stated) | 2.52
CCS(=O)c1ccc(C(C)=O)s1 (configuration not stated) | 1.31
CS(=O)c1ccsc1 (configuration not stated) | 0.91
CCCCS(=O)c1sc(C#N)cc1C#N (configuration not stated) | 2.64
CS(=O)c1sccc1[N+](=O)[O-] (configuration not stated) | 1.69
CS(=O)c1scc(-c2ccccc2)c1[N+](=O)[O-] (configuration not stated) | 3.2
Cc1csc(S(C)=O)c1[N+](=O)[O-] (configuration not stated) | 2.19
CCS(=O)c1sc(Cl)cc1C#N (configuration not stated) | 2.31
CCCS(=O)c1sc(C#N)cc1C#N (configuration not stated) | 2.18

Continued, values first:

logP | SMILES
2.02 | COc1c(C#N)sc(S(C)=O)c1C#N (configuration not stated)
2.22 | CCS(=O)c1sc(C#N)c(C)c1C(C)=O (configuration not stated)
2.15 | CS(=O)c1sc(C#N)c(Cl)c1C#N (configuration not stated)
1.82 | CCS(=O)c1sc(C(C)=O)c(N)c1C#N (configuration not stated)
2.22 | CCS(=O)c1sc(C(C)=O)c(C)c1C#N (configuration not stated)
2.35 | CCS(=O)c1sc(C#N)c(OC)c1C#N (configuration not stated)
2.64 | CCS(=O)c1sc(C(C)=O)c(Cl)c1C#N (configuration not stated)
3.44 | CCCCS(=O)c1sc(C#N)c(Cl)c1C#N (configuration not stated)
2.95 | CCCS(=O)c1sc(C#N)c(Cl)c1C#N (configuration not stated)
1.78 | CCS(=O)c1sc(C#N)cc1C#N (configuration not stated)
